Literature values as cited in US20230159622A1, “COLLAGEN MIMICS” (Wisconsin Alumni Research Foundation, priority 2006, published 2023).
Marks after values point to notes of the source that are not given here.

Conditions: based on the extrapolation of data from solutions containing trimethylamine N-oxide; literature reference

Tm (±1° C.) of triple helix, based on extrapolation: −6^a ° C.
Substance: (Pro-Pro-Gly)7
